Test results as given in publication PMC12326981, “Novel C5α-substituted carbapenems enhance Mycobacterium abscessus killing via selective target binding and reduced hydrolysis by BlaMab” (Antimicrobial Agents and Chemotherapy, 2025).

Experiments:
[1] = test system: C[C@@H](O)[C@H]1C(=O)N2C(C(=O)O)=C(S[C@@H]3CN[C@H](C(=O)N(C)C)C3)C[C@]12C; assay: Steady-state kinetics of hydrolysis by BlaMab; type: biochemical, Mycobacterium abscessus; conditions: other: best-fit value (95% confidence interval), MES buffer pH 6.4, room temperature
Mab ATCC 19977 [2] = assay: MIC testing against Mab ATCC 19977, single agent and combinations; type: cell-based, Mycobacterium abscessus
Protocol: MICs were determined in duplicate following Clinical Laboratory Standards Institute ([52]) guidelines using Middlebrook 7H9 broth supplemented with 10% (vol/vol) oleic acid-albumin-dextrose-catalase (OADC) and 0.05% (vol/vol) Tween 80, with an inoculum of 5 × 10⁵ CFU/mL. MIC testing of two C5α-substituted carbapenems was conducted both individually and in combination with cephalosporins (cefuroxime and ceftaroline), penicillins (amoxicillin), or BLIs (avibactam or durlobactam + sulbactam). Avibactam, durlobactam, cefuroxime, ceftaroline, and amoxicillin were fixed at concentrations of 4, 1, 2, 4, and 4 mg/L, respectively. […] The MIC was defined as the lowest antibiotic concentration that inhibited visible bacterial growth following 48 h of incubation at 30°C.

[3] = Thermal stability in 7H9 broth at 30°C; conditions: for Degradation percentage: 24 h
Protocol: The stability of the two compounds in 7H9 broth was assessed at 30°C at drug concentrations of 10, 50, and 100 mg/L, with each condition tested in triplicate. Absorbance at 240 nm was measured every 2 h over a 24 h period using a BioTek Synergy2 multimode reader, with data analyzed via Gen5 software to monitor degradation or changes in stability. To evaluate the impact of thermal instability, MIC tests were performed using Mab ATCC 19977. Compounds were tested at time points of 0 h (no incubation) and 6, 24, and 48 h of incubation at 30°C. Imipenem and meropenem, known to be thermally unstable β-lactams, were included as positive controls. The MIC results were recorded after 48 h of incubation. Detailed MIC testing protocols were identical to those described below.

Mab ATCC 19977 [4] = assay: MIC testing with drugs pre-incubated in 7H9 broth (effect of drug instability); type: cell-based, Mycobacterium abscessus; conditions: for MIC: Mycobacteroides abscessus, ATCC19977
Protocol: MICs were determined in duplicate following Clinical Laboratory Standards Institute ([52]) guidelines using Middlebrook 7H9 broth supplemented with 10% (vol/vol) oleic acid-albumin-dextrose-catalase (OADC) and 0.05% (vol/vol) Tween 80, with an inoculum of 5 × 10⁵ CFU/mL. MIC testing of two C5α-substituted carbapenems was conducted both individually and in combination with cephalosporins (cefuroxime and ceftaroline), penicillins (amoxicillin), or BLIs (avibactam or durlobactam + sulbactam). Avibactam, durlobactam, cefuroxime, ceftaroline, and amoxicillin were fixed at concentrations of 4, 1, 2, 4, and 4 mg/L, respectively. Amoxicillin was combined with 4 mg/L avibactam, as it is highly susceptible to hydrolysis by BlaMab ([12], [15], [25]). The MIC was defined as the lowest antibiotic concentration that inhibited visible bacterial growth following 48 h of incubation at 30°C.

[5] = test system: Mab strain ATCC 19977 and three clinical isolates (Mab122, Mab686, and UH01); assay: Static concentration time-kill (SCTK) assay; type: cell-based, Mycobacterium abscessus; conditions: imipenem alone (Fig. S1)
Protocol: SCTK studies were conducted over 5 days in Middlebrook 7H9 broth supplemented with 10% (vol/vol) OADC, 0.2% (vol/vol) glycerol, and 0.05% (vol/vol) Tween 80 in duplicate. The efficacy of JDB/NA-1-157 and JDB/NA-208 was evaluated using Mab strain ATCC 19977 and three clinical isolates (Mab122, Mab686, and UH01) at an initial inoculum of 10^5.5–10^6.3 CFU/mL. […] Bacterial killing was assessed across a wide range of concentrations for JDB/NA-1-157 and JDB/NA-1-208 individually (0.0625–64.0 mg/L).
For the combination study, the concentrations of JDB/NA-1-157 and JDB/NA-1-208 were selected based on MIC results and time-killing profiles of the single-drug study, while the concentrations of other β-lactams and BLIs were chosen based on clinically relevant levels, determined from the predicted average unbound steady-state concentrations (fCss,avg) in plasma at clinically relevant doses ([27]). The drug concentrations used were JDB/NA-1-157, 1 mg/L; JDB/NA-1-208, 8 mg/L; imipenem, 12 mg/L; ceftaroline, 8 mg/L; cefuroxime, 8 mg/L; amoxicillin, 2 mg/L; avibactam, 4 mg/L; durlobactam, 12 mg/L; amikacin, 12 mg/L; clarithromycin, 0.3 mg/L; and cefoxitin, 7 mg/L. The SOC regimen was included for comparison of efficacy. On day 3, the broth was replaced with fresh broth containing the corresponding drug concentrations. For viable cell counts, 100 µL of undiluted or appropriately diluted samples was subcultured on Middlebrook 7H10 agar plates supplemented with 1% (vol/vol) OADC, 0.2% glycerol, and 0.05% (vol/vol) Tween 80. All samples were washed twice with sterile 0.9% saline prior to serial dilution or plating.

PBP B = PBP B (Mycobacteroides abscessus, UniProt B1MP31); assay: Apparent inhibition constant (nitrocefin, Dixon plot); type: biochemical; conditions: read-out: Ki,app (converted)
Sequence of PBP B (B1MP31 entry or part of it): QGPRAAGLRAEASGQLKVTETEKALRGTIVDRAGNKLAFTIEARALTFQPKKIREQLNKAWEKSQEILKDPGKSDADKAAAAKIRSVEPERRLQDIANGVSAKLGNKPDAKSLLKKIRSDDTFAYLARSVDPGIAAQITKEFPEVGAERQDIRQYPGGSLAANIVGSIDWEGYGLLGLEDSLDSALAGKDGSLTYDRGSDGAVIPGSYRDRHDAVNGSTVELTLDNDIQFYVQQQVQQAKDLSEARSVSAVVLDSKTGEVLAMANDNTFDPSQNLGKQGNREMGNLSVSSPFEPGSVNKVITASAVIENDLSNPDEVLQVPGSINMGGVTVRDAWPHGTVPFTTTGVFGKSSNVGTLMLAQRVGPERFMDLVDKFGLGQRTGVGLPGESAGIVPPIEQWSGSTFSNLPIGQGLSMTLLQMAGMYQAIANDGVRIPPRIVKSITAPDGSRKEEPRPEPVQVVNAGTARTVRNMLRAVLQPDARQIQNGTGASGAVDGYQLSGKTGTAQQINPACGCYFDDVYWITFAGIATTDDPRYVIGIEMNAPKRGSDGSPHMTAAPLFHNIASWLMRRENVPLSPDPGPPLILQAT
Protocol: (§1) Steady-state kinetic studies with JDB/NA-1-157 and JDB/NA-1-208 were performed using purified LDTs and PBPs, including LDT1–5, PBP-B, PBP-lipo, and D,D-carboxypeptidase. The assays were conducted on a BioTek Synergy2 multimode reader equipped with Gen5 software. To determine the Michaelis constant (Km^NCF) for each LDT and PBP, a wide range of NCF concentrations was tested, while the enzyme concentrations were fixed. Absorbance changes at 482 nm were monitored over 10 min. Steady-state kinetic parameters (Vmax and Km) were derived by fitting the experimental data to the Henri–Michaelis–Menten equation using nonlinear least-squares regression in GraphPad Prism version 9. The reaction velocity (v) at a given substrate concentration ([S]) was calculated using equation 2: […]
(§2) The apparent inhibition constants (Ki,app) for JDB/NA-1-157 and JDB/NA-1-208 were determined under the following conditions: an NCF concentration of 5 × Km, fixed concentrations of LDT or PBP enzymes, and varying concentrations of JDB/NA-1-157 and JDB/NA-1-208. Absorbance changes at 482 nm were monitored over a 30 min period for each inhibitor concentration. The data were linearized using a Dixon plot, which involves plotting the reciprocal of the absorbance change (1/ΔA) against the concentrations of JDB/NA-1-157 or JDB/NA-1-208. Apparent Ki,app values were derived from the intersection points on the Dixon plot and were subsequently corrected for substrate concentration and enzyme affinity using equation 3:
(§3) (3) Ki,app=observed Ki,app/1+[NCF]/Km NCF.

PBP-lipo = molecular target: T1, PBP-lipo (Mycobacteroides abscessus, UniProt B1MDC3); assay: as above; type: biochemical; conditions: Ki,app
T1 construct: made in house; host or cells: Escherichia coli BL21 (DE3)
T1 sequence (B1MDC3 entry or part of it): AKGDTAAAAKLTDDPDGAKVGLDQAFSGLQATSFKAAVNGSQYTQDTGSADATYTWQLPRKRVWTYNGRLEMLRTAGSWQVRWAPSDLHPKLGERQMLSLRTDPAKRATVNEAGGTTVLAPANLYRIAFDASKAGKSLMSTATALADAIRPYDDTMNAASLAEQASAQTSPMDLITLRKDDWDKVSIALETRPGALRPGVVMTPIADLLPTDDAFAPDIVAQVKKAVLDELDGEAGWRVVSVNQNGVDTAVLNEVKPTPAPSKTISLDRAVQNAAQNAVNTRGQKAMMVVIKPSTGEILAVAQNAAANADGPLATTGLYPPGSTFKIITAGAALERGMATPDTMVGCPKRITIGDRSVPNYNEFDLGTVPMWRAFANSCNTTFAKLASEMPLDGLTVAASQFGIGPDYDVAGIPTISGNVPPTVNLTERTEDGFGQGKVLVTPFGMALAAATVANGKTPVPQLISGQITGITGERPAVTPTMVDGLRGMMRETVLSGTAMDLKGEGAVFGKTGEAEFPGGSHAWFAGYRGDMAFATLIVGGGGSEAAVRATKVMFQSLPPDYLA
Protocol: as §1, §2, §3

LDT5 = LDT5 (Mycobacteroides abscessus, UniProt B1MHQ4); assay: as above; type: biochemical, Mycobacterium abscessus; conditions: read-out: Ki,app
Sequence of LDT5 (B1MHQ4 entry or part of it): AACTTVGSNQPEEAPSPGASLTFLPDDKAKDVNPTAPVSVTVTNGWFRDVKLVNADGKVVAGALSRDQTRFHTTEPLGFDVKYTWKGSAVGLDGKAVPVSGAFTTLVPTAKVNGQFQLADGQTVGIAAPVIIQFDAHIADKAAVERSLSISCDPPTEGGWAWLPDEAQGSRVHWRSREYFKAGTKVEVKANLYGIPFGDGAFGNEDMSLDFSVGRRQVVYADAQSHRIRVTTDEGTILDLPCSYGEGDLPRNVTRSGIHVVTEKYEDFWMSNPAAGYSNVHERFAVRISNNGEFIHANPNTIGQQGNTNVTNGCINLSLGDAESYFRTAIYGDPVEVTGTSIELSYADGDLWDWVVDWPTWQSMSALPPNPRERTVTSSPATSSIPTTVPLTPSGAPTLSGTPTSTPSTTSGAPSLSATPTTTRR
Protocol: as §1, §2, §3

PonA2 = PonA2 (Mycobacteroides abscessus, UniProt B1MFV7); assay: as above; type: biochemical, Mycobacterium abscessus; conditions: Ki,app
Sequence of PonA2 (B1MFV7 entry or part of it): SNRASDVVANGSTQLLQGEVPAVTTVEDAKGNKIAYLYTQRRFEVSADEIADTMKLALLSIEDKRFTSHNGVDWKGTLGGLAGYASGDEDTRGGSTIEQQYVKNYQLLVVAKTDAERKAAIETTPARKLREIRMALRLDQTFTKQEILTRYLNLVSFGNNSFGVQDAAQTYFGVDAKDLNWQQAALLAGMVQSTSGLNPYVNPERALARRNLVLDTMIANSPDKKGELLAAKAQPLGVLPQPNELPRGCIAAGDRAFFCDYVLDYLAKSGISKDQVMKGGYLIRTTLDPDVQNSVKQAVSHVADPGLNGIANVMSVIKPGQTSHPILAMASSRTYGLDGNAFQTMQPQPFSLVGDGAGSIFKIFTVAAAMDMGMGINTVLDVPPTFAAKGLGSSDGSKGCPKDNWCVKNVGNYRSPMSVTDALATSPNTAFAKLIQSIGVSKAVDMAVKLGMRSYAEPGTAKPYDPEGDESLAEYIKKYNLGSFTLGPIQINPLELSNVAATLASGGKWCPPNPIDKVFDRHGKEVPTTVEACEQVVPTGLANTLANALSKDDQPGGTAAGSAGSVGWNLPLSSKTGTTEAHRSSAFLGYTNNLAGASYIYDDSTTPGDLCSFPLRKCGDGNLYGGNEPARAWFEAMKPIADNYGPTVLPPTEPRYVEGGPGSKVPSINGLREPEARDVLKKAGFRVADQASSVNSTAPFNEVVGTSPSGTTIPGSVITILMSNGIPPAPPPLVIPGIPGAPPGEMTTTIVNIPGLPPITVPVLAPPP
Protocol: as §1, §2, §3

LDT1 = LDT1 (Mycobacteroides abscessus, UniProt B1MDC1); assay: as above; type: biochemical, Mycobacterium abscessus; conditions: Ki,app
Sequence of LDT1 (B1MDC1 entry or part of it): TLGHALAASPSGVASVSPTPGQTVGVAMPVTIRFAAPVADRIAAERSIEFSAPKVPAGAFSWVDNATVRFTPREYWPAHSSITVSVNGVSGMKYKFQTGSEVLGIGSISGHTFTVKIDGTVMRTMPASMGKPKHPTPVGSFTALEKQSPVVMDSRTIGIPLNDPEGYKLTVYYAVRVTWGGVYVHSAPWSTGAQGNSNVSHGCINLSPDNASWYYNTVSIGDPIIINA
Protocol: as §1, §2, §3

LDT2 = LDT2 (Mycobacteroides abscessus, UniProt B1MMQ4); assay: as above; type: biochemical, Mycobacterium abscessus; conditions: Ki,app
Sequence of LDT2 (B1MMQ4 entry or part of it): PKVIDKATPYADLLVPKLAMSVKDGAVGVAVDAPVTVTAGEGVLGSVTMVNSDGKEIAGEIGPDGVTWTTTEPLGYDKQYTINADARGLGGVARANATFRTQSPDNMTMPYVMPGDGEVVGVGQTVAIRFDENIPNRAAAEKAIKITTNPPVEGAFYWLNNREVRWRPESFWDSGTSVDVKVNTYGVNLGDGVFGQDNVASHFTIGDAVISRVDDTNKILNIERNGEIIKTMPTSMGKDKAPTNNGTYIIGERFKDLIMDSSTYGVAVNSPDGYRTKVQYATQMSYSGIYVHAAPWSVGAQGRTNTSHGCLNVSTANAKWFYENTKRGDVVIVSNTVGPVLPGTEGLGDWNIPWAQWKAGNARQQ
Protocol: as §1, §2, §3

[6] = Mycobacteroides abscessus, ATCC19977, 48 h, alone (single agent), read-out: MIC
[7] = drug incubated 6 h in 7H9 broth at 30°C
[8] = drug incubated 24 h in 7H9 broth at 30°C
[9] = drug incubated 48 h in 7H9 broth at 30°C

For “BlaMab (Mycobacteroides abscessus ATCC 19977)”, the Km [1] was 9.054 (3.677–17.50) µM, the kcat [1] was 0.03 s⁻¹ and the kcat/Km [1] was 3000 M⁻¹ s⁻¹.

Compound `CC1=C[C@@H]2CN(C(=O)N2OS(=O)(=O)O)[C@@H]1C(N)=O` [DUR, durlobactam, reference compound] has an MIC (Mab ATCC 19977 [2]; [6]) of 8 µg/mL.

`CCO/N=C(\C(=O)N[C@@H]1C(=O)N2C(C(=O)[O-])=C(Sc3nc(-c4cc[n+](C)cc4)cs3)CS[C@H]12)c1nsc(N)n1` [CFT, ceftaroline, reference compound] gave an MIC (Mab ATCC 19977 [2]; [6]) of 16 µg/mL.

With `C[C@@H](O)[C@H]1C(=O)N2C(C(=O)O)=C(SCCN=CN)C[C@H]12` [IPM, imipenem] the “additional degradation by 24 h” value [3] was “approximately 25%”, the “degradation within the first 6 h” value [3] was “approximately 25%” and the half-life ([3]; 7H9 broth) was 10 h. The Degradation percentage ([3]; 10 mg/L) was 67.8%, the Degradation percentage ([3]; 50 mg/L) was 51.4% and the Degradation percentage ([3]; 100 mg/L) was 49.3%. For the same compound, the MIC (Mab ATCC 19977 [4]; [7]) was 1 µg/mL, the MIC (Mab ATCC 19977 [4]; [8]) was 32 µg/mL and the MIC (Mab ATCC 19977 [4]; [9]) was over 64 µg/mL. For the same compound, the MIC (Mab ATCC 19977 [4]; no incubation of drug) was 1 µg/mL, the “MIC fold increase after 24 h incubation” value (Mab ATCC 19977 [4]; drug incubated 24 h) was 32 fold and the “MIC fold increase after 48 h incubation” value (Mab ATCC 19977 [4]; drug incubated 48 h) was over 64 fold. For the same compound, the “log10 reduction in bacterial load” value [5] was about 1.5 log10, the Ki (PBP B) was 1470 nM and the Ki (PBP-lipo) was 1840 nM. The Ki (LDT5) was 100000 nM and the Ki (PonA2) was 3140 nM.

With `CO/N=C(\C(=O)N[C@@H]1C(=O)N2C(C(=O)O)=C(COC(N)=O)CS[C@H]12)c1ccco1` [CXM, cefuroxime, reference compound] the MIC (Mab ATCC 19977 [2]; [6]) was 4 µg/mL.

Compound `CC1(C)S[C@@H]2[C@H](NC(=O)[C@H](N)c3ccc(O)cc3)C(=O)N2[C@H]1C(=O)O` [AMX, amoxicillin, reference compound] has an MIC (Mab ATCC 19977 [2]; [6]) of 128 µg/mL and an MIC (Mab ATCC 19977 [2]; no carbapenem, with AVI) of 32 µg/mL.

Work on `NC(=O)[C@@H]1CC[C@@H]2CN1C(=O)N2OS(=O)(=O)O` [AVI, avibactam, reference compound] yielded an MIC (Mab ATCC 19977 [2]; [6]) of over 128 µg/mL.

With `C[C@@H](O)[C@H]1C(=O)N2C(C(=O)O)=C(S[C@@H]3CN[C@H](C(=O)N(C)C)C3)[C@H](C)[C@H]12` [MEM, meropenem] the Degradation percentage ([3]; 10 mg/L) was 11.7%, the Degradation percentage ([3]; 50 mg/L) was 15.8% and the Degradation percentage ([3]; 100 mg/L) was 16.1%. The MIC (Mab ATCC 19977 [4]; [7]) was 4 µg/mL, the MIC (Mab ATCC 19977 [4]; [8]) was 16 µg/mL and the MIC (Mab ATCC 19977 [4]; [9]) was 16 µg/mL. For the same compound, the MIC (Mab ATCC 19977 [4]; no incubation of drug) was 4 µg/mL, the “MIC rise after 24 and 48 h incubation vs nonincubated” value (Mab ATCC 19977 [4]; drug incubated 24 and 48 h) was “fourfold” and the Ki (PBP B) was 965 nM. It also gave a Ki (LDT1) of 206 nM, a Ki (LDT2) of 31.3 nM and a Ki (PonA2) of 143 nM.
